Results as given in patent US7517658B2, “Methods for preparing compositions using a SNORF33 receptor” (H. Lundbeck A/S, priority 1999, dated 2009).
“And” between values parts separate entries of the source, which are not always exact repeats. Identical values can stand only once.

Tests used:
hSNORF33 [1] = molecular target: T1, hSNORF33 (Homo sapiens, UniProt Q96RJ0); assay: [3H]-TYR binding (saturation and displacement) to human SNORF33 COS-7 membranes; parameters: expressed in transfected cells; host or cells: COS-7 (membranes); settings: human SNORF33 in transfected COS-7 membranes; read-out: Mean Ki ± S.D.M., displacement of [3H]-tyramine
T1 sequence (Q96RJ0 1-339): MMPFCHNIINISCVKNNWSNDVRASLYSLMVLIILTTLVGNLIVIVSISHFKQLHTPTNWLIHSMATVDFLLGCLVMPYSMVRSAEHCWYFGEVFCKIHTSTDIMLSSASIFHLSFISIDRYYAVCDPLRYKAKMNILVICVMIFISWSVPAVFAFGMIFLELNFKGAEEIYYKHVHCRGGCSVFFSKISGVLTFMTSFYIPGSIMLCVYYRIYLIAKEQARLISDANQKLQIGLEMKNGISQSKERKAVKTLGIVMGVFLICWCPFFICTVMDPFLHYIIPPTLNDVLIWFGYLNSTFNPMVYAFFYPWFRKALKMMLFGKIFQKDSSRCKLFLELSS
Method: (§1) [^3H]-TYR and [^3H]-T binding assays were performed essentially as described by Mallard et al. (1992), with minor modifications. Radioligand binding assays were performed by diluting membranes prepared from cells expressing the receptor (with co-expression of the rat G-protein alpha S subunit for human SNORF33) in 25 mM Gly-Gly buffer (Sigma, pH=7.4 @ 0° C.) containing 5 mM ascorbate and 10 μM pargyline (final protein concentration in assay=100-300 μg/ml). Membranes were then incubated with either [^3H]-TYR (American Radiochemicals, specific activity 60 mCi/μmole) or [^3H]-T (Amersham, specific activity 98 mCi/μmole) in the presence or absence of competing ligands on ice for 30 min in a total volume of 250 μl in 96 well microtiter plates. The bound ligand was separated from free by filtration through GF/B filters presoaked in 0.5% polyethyleneimine (PEI), using Tomtec (Wallac) or Brandel Cell Harvester vacuum filtration device. After addition of Ready Safe (Beckman) scintillation fluid, bound radioactivity was quantitated using a Trilux (Wallac) scintillation counter (approximately 20% counting efficiency of bound counts). Data was fit to non-linear curves using GraphPad Prism.
(§2) In this manner, agonist or antagonist compounds that bind to the receptor may be identified as they inhibit the binding of the labeled ligand to the membrane protein of cells expressing the said receptor. Non-specific binding was defined as the amount of radioactivity remaining after incubation of membrane protein in the presence of 10 μM of the unlabeled amine corresponding to the radioligand used. In equilibrium saturation binding assays, membrane preparations or intact cells transfected with the receptor are incubated in the presence of increasing concentrations of the labeled compound to determine the binding affinity of the labeled ligand. The binding affinities of unlabeled compounds may be determined in equilibrium competition binding assays, using a fixed concentration of labeled compound in the presence of varying concentrations of the displacing ligands.

rSNORF33 [2] = molecular target: T2, rSNORF33 (Rattus norvegicus, UniProt Q923Y9); assay: [3H]-TYR binding (saturation and displacement) to rSNORF33-transfected COS-7 membranes; parameters: expressed in transfected cells; host or cells: COS-7 (transient); settings: rSNORF33 in transfected COS-7 membranes; 2–4 experiments; read-out: Mean Ki ± S.D.M., displacement of [3H]-tyramine
T2 sequence (Q923Y9 whole entry): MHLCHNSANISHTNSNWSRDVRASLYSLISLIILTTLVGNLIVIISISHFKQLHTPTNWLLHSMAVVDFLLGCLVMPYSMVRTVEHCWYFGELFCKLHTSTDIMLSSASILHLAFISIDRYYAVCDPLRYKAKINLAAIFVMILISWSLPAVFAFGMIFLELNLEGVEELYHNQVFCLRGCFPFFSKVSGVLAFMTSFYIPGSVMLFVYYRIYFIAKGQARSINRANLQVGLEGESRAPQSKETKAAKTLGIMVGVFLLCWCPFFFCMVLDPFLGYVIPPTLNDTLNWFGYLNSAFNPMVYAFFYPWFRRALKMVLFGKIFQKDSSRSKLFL
Method: as §1, with “Radioligand” for “[^3H]-TYR and [^3H]-T binding assays were performed essentially as described by Mallard et al. (1992), with minor modifications. Radioligand”
as §2

rSNORF33 [3] = molecular target: T2, rSNORF33; assay: Intracellular cAMP release in rSNORF33-transfected COS-7 cells; assay type: cell-based; parameters: expressed in transfected cells; host or cells: COS-7 (transient)
Method: (§3) The receptor-mediated stimulation or inhibition of cyclic AMP (cAMP) formation may be assayed in cells expressing the mammalian receptors. Cells are plated in 96-well plates or other vessels and preincubated in a buffer such as HEPES buffered saline (NaCl (150 mM), CaCl2 (1 mM), KCl (5 mM), glucose (10 mM)) supplemented with a phosphodiesterase inhibitor such as 5 mM theophylline, with or without protease inhibitor cocktail (For example, a typical inhibitor cocktail contains 2 μg/ml aprotinin, […] leupeptin, and 10 μg/ml phosphoramidon.) for 20 min at 37° C., in 5% CO2. Test compounds are added with or without […] forskolin and incubated for an additional 10 min at 37° C. The medium is then aspirated and the reaction stopped by the addition of 100 mM HCl or other methods. The plates are stored at 4° C. for 15 min, and the cAMP content in the stopping solution is measured by radioimmunoassay. Radioactivity may be quantified using a gamma counter equipped with data reduction software. Specific modifications may be performed to optimize the assay for the receptor or to alter the detection method of cAMP.
(§4) COS-7 cells were transiently transfected with rSNORF33 gene using the calcium phosphate method and plated in 96-well plates. 48 hours after transfection, cells were washed twice with Dulbecco's phosphate buffered saline (PBS) supplemented with 10 mM HEPES, 10 mM glucose, 5 mM theophylline and 10 μM pargyline and were incubated in the same buffer for 20 min at 37° C., in […] 5% CO2. Test compounds were added and cells were incubated for an additional 10 min at 37° C. The medium was then aspirated and the reaction stopped by the addition of 100 mM HCl. The plates were stored at −20° C. for 2-5 days. For cAMP measurement, plates were thawed and the cAMP content in each well was measured by radioimmunoassay cAMP Scintillation Proximity Assay (Amersham Pharmacia Biotech). Radioactivity was quantified using microbeta Trilux counter (Wallac).

mouse SNORF33 [4] = molecular target: T3, mouse SNORF33 (Mus musculus, UniProt Q923Y8); assay: [3H]-TYR binding (saturation and displacement) to mouse SNORF33 COS-7 membranes; settings: mouse SNORF33, displacement of [3H]TYR; read-out: Ki (individual determinations)
T3 construct: expressed in transfected cells; host or cells: COS-7 (membranes)
T3 sequence (Q923Y8 whole entry): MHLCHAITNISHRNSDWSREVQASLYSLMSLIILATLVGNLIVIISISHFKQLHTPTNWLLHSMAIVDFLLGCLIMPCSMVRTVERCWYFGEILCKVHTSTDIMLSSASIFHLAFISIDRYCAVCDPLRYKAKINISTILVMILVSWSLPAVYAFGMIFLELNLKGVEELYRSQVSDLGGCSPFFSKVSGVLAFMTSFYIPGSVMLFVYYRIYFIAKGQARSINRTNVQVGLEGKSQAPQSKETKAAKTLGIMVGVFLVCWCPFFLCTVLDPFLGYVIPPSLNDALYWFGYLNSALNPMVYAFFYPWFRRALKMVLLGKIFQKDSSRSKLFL
Method: as §1, §2

mouse SNORF33 [5] = molecular target: T3, mouse SNORF33; assay: cAMP assay at mouse SNORF33; assay type: cell-based
Method: as §3, §4

hSNORF33 [6] = molecular target: T1, hSNORF33; assay: Intracellular cAMP release in human SNORF33-transfected COS-7 cells; assay type: cell-based; parameters: expressed in transfected cells; host or cells: COS-7 (transient)
Method: as §3, §4

`NCCc1ccccc1` [β-Phenylethylamine (PEA), β-Phenylethylamine] showed a Ki (hSNORF33 [1]) of 8 ± 6 nM, a Ki (rSNORF33 [2]) of 56 ± 21 nM and an EC50 (rSNORF33 [3]) of 10 ± 1 nM. For the same molecule, the Ki (mouse SNORF33 [4]) was 19 nM and 47 nM, the “Agonism in the cAMP assay” value (mouse SNORF33 [5]) was “full agonists” and the EC50 (hSNORF33 [6]) was 216 ± 149 nM.
